Reference: BindingDB's records for doi:10.1021/jm701275z (University of Athens, 2008)

What follows are molecules tested against Angiotensin-converting enzyme (Homo sapiens, UniProt P12821) (assay: Enzyme Inhibition Assay). Conditions: pH 6.8; 25 °C.
Experimental: Continuous assays were performed by recording the fluorescence increase at 405 nm (excitation@ 320 nm) induced by the cleavage of fluorogenic substrate, using 96-well nonbinding surface plates. Fluorescence signals were monitored using a Fluoroscan Ascent photon counter spectrophotometer (Thermo-Labsystems, Courtaboeuf, France) equipped with a temperature control device and a plate shaker. The substrate and enzyme concentrations for the experiments were chosen so as to remain well below 10% of substrate utilization and to observe initial rates. For each inhibitor, percentage inhibition was determined in triplicate experiments at five inhibitor concentrations, chosen to observe a 20-80% range of inhibition. Ki values were determined using the method proposed by Horovitz and Leviski, as described in Proc. Natl. Acad. Sci. U.S.A. 1987, 84, 6654.

Angiotensin-converting enzyme, sequence (P12821 whole entry): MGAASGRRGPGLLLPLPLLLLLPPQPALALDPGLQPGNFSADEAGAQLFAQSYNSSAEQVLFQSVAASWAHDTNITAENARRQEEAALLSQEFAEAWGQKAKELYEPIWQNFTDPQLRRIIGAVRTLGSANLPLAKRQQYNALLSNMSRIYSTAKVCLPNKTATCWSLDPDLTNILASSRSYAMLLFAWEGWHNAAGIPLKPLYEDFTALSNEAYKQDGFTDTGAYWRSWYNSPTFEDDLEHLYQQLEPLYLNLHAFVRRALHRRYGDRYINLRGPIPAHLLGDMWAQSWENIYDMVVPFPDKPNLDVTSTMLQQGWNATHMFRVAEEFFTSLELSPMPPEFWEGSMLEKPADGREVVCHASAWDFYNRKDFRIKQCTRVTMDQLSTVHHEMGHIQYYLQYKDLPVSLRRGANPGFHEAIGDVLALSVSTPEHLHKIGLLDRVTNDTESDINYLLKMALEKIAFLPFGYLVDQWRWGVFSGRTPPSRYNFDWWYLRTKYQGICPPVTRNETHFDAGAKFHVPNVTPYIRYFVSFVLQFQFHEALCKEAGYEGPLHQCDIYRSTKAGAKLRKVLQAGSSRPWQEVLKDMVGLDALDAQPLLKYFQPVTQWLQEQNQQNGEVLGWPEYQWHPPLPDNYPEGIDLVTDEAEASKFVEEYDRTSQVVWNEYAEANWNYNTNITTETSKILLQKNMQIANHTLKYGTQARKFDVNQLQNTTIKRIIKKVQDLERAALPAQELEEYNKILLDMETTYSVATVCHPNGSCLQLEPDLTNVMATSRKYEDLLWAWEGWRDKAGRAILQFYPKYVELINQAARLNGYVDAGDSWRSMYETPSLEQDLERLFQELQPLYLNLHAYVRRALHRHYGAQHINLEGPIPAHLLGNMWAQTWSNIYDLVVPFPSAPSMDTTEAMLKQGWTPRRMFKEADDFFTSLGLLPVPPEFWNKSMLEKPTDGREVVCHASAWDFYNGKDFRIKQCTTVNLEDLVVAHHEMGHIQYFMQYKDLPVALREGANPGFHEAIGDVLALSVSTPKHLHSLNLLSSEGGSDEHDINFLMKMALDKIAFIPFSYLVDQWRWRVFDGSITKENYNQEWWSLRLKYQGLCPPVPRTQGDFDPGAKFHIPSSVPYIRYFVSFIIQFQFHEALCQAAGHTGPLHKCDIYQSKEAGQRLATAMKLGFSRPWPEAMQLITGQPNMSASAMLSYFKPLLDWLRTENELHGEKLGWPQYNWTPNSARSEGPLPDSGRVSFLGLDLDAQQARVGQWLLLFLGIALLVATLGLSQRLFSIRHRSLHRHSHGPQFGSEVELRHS

Ki, > 10 µM:
CC(=O)NC(Cc1c[nH]cn1)C(=O)N1CCCC1P(=O)(O)CC(Cc1cc(-c2ccccc2)no1)C(=O)O (centres undefined) [3-({1-[2-acetamido-3-(1H-imidazol-4-yl)propanoyl]pyrrolidin-2-yl}(hydroxy)phosphoryl)-2-[(3-phenyl-1,2-oxazol-5-yl)methyl]propanoic acid]
CC(=O)NC(CC(C)C)C(=O)N1CCCC1P(=O)(O)CC(Cc1cc(-c2ccccc2)no1)C(=O)O (centres undefined) [3-{[1-(2-acetamido-4-methylpentanoyl)pyrrolidin-2-yl](hydroxy)phosphoryl}-2-[(3-phenyl-1,2-oxazol-5-yl)methyl]propanoic acid]
CC(=O)NC(CC(C)C)C(=O)N1CCCC1P(=O)(O)CC(Cc1ccccc1)C(=O)O (centres undefined) [The second fraction of the HPLC chromatogram.]
CC(=O)NC(Cc1c[nH]cn1)C(=O)N1CCCC1P(=O)(O)CC(Cc1ccccc1)C(=O)O (centres undefined) [The second fraction of the HPLC chromatogram.]
